# Reference: patent publication US20110166196A1, “TREATMENT AND PROPHYLAXIS OF EPILEPSY AND FEBRILE SEIZURES” (priority 2008, published 2011)
# Test system: excitatory synapses on interneurons
# Experiment: Drug-induced depression of EPSC amplitudes in slices from TRPV1-/- and C57BL/6 wild-type mice
# Type: cell-based, mouse
# Conditions: capsaicin 1 μM
# Description: The basic methods have been detailed previously (McMahon and Kauer, 1997). Sprague-Dawley rats (15-22 days old) were used in the majority of experiments. In addition, we used TRPV1^−/− mice (Caterina et al., 2000) and wild-type C57BL/6 mice aged between 15 and 21 days (Jackson Laboratory). The TRPV1^−/− mice we used have been backcrossed at least 10 times onto a C57BL/6 background and were obtained from homozygous breeding pairs. Control mice were therefore not littermates but were age-matched, wild-type C57BL/6 animals received from the same supplier in the same shipment. All animal protocols were approved by the Brown University Institutional Animal Care and Use Committee. For mouse experiments, only one brain slice per mouse was used for each experiment, so that reported ‘n’ numbers represent the number of animals. Animals were anaesthetized using halothane or isoflurane and quickly decapitated. […]
# Slices were continuously perfused with ACSF warmed to 28-32° C. at a flow rate of 1-2 ml/min. […] EPSCs were stimulated at 0.1 Hz (100 μsec) using a bipolar stainless steel stimulating electrode placed in stratum radiatum at least 200 μm from the recorded cell. […] In early experiments, we measured rectification ratios of EPSCs evoked at +40 mV/−60 mV in the presence of 50 μM D-AP5, measured at the time of peak inward synaptic current seen at −70 mV (Lei and McBain, 2004).
# The maximal initial slope of fEPSPs was calculated using a LabVIEW-based program (National Instruments). The peak amplitude of each EPSC was measured by comparing a 10 msec time period immediately prior to the stimulus with the peak of the EPSC using this program as well. Occasionally polysynaptic responses were evoked, and in these cases, only the initial monosynaptic event was measured. To positively identify LTD, EPSCs measured every 10 seconds were averaged in 1 minute intervals. […]
structure (smiles),measurement,setting,value
"COc1cc(CNC(=O)CCCCC=CC(C)C)ccc1O [capsaicin, 8-methyl-N-vanillyl-6-nonenamide]",EPSC amplitudes after 10-15 minutes in capsaicin in C57BL/6 wild-type mice,"C57BL/6 wild-type mice, n=6",50.5±12.1 % of pre-drug control values
same,EPSC amplitudes after 10-15 minutes in capsaicin in TRPV1−/− mice,"TRPV1−/− mice, n=8",100.7±6.6 % of pre-drug control values
